Source: patent US5298523A, “Method for treating transplant patients using mycalamide compounds” (priority 1992, dated 1994)
Where two headings read alike, the source gives them in different places.

What was measured:
murine splenocytes = assay: Mitogen-induced proliferation of murine splenocytes; format: cell-based; settings: for activity at 0.5 µg/mL / activity at 0.05 µg/mL / activity at 0.005 µg/mL / activity at 0.0005 µg/mL / activity at 50 pg/mL: Mus musculus, Splenocyte; for activity at 0.5 µg/mL: 5.0 × 10^-1 μg/ml; for activity at 0.05 µg/mL: 5.0 × 10^-2 μg/ml; for activity at 0.005 µg/mL: 5.0 × 10^-3 μg/ml; for activity at 0.0005 µg/mL: 5.0 × 10^-4 μg/ml; for activity at 50 pg/mL: 5.0 × 10^-5 μg/ml
Method: Preparation of splenocyte cell suspensions. […] The resulting supernatant was then transferred to another sterile centrifuge tube, and the cell concentration adjusted to 2×10^6 cells/ml dilution with TCM.
Mitogen studies. The effects of mycalamide A on the mitogen-induced proliferation of murine splenocytes was investigated. Splenocytes (2×10^5 /well) from C57BL/6J or BALB/c mice were incubated with 1.0 μg/ml of Con A, 10 μg/ml of phytohemagglutinin (PHA), lipopolysaccharide (LPS) or pokeweed mitogen (PWM) and various concentrations of mycalamide A at 37° C. in a 5% CO2, humidified atmosphere for 90 hours. A volume of […] of a 20.0 μCi/ml of ^3 H-thymidine was added to each well, and the plates incubated for an additional 6 hours. Plates were harvested, and ^3 H-thymidine incorporation determined by counting samples in a liquid scintillation counter.

[1] = system: two-way human mixed lymphocyte response (human PBL); assay: Two-way human mixed lymphocyte reaction (MLR), 3H-thymidine incorporation; format: cell-based
Method: Preparation of human peripheral blood leukocyte (PBL) suspensions. Human peripheral blood suspensions were prepared from Leukotrap blood filters as follows: Leukotrap filters containing processed leukocytes from random, unrelated blood donors were obtained from the Indian River Blood Bank (Vero Beach, Fla.). Buffy-coat blood cell suspensions were recovered by reverse-flow phosphate-buffered saline purging and centrifugation for 15 minutes at 475× g. Buffy coats were removed, and 5 ml of the suspension was layered onto 5 ml of Histopaque gradient material. The Histopaque gradients were centrifuged at 475× g for 30 minutes. Lymphocytes were removed from the Histopaque-medium interface, and washed twice with 10 ml of PBS (Dulbecco's phosphate-buffered saline without CaCl2 and MgCl2.6H2 O). The final cell pellet was resuspended in TCM, and the cell concentration adjusted to 2×10^6 cells/ml.
Two way mixed lymphocyte reaction (MLR). The immunosuppressive properties of mycalamide A were evaluated using the two-way MLR, utilizing murine splenocytes and human PBL. For the murine MLR, splenocytes from C57Bl/6J and BALB/c mice were prepared as described above, and a volume of […] of each cell suspension was added together to test and control wells of microtiter plates. Wells containing 0.20 ml of each cell suspension alone served as controls.
Dilutions of the drug to be tested were prepared in absolute EtOH and further diluted to the appropriate concentration in TCM and added directly to the wells containing splenocyte combinations. Additional solvent (EtOH) control wells were also prepared by adding the equivalent percentage of EtOH to each culture well. Plates were incubated at 37° C. in a 5% CO2 humidified atmosphere for 88 hours. Following the incubation, 1.0 μCi of ^3 H-thymidine was added to each well, and the plates were returned to the incubator for 5 hours. The contents of each well were harvested onto glass-fiber filter strips, and the incorporation of ^3 H-thymidine was determined by a liquid scintillation counter. Similar conditions were utilized for MLR cultures using human peripheral blood lymphocytes prepared from unrelated donors as described above, with the exception that the initial incubation and subsequent ^3 H-thymidine pulse times were different (114 hours for initial incubation followed by a 6-hour incubation with ^3 H-thymidine). Plates were harvested in a similar manner, and ^3 H-thymidine incorporation determined as described above.

[2] = Con A, read-out: Con A, % of control
[3] = LPS, read-out: LPS, % of control
[4] = PHA, read-out: PHA, % of control
[5] = PWM, read-out: PWM, % of control

`C=C1CC(OC)(C(O)C(=O)NC2OCOC3C2OC(CC(O)CO)C(C)(C)C3OC)OC(C)C1C` (centres unmarked) [Mycalamide A, mycalamide A] was tested, and the “suppression of Con A, LPS, and PWM stimulation” value (murine splenocytes; 5×10^-5 μg/ml, Con A, LPS, PWM, in words) was “suppressed”, the activity at 0.5 µg/mL (murine splenocytes; [2]) was 0% and the activity at 0.05 µg/mL (murine splenocytes; [2]) was 0%. For the same compound, the activity at 0.005 µg/mL (murine splenocytes; [2]) was 0%, the activity at 0.0005 µg/mL (murine splenocytes; [2]) was 0% and the activity at 50 pg/mL (murine splenocytes; [2]) was 0%. For the same compound, the activity at 0.5 µg/mL (murine splenocytes; [3]) was 0%, the activity at 0.05 µg/mL (murine splenocytes; [3]) was 0% and the activity at 0.005 µg/mL (murine splenocytes; [3]) was 0%. The activity at 0.0005 µg/mL (murine splenocytes; [3]) was 0%, the activity at 50 pg/mL (murine splenocytes; [3]) was 68% and the activity at 0.5 µg/mL (murine splenocytes; [4]) was 0%. It also gave an activity at 0.05 µg/mL (murine splenocytes; [4]) of 0%, an activity at 0.005 µg/mL (murine splenocytes; [4]) of 0% and an activity at 0.0005 µg/mL (murine splenocytes; [4]) of 38%. The activity at 50 pg/mL (murine splenocytes; [4]) was 139%, the activity at 0.5 µg/mL (murine splenocytes; [5]) was 0% and the activity at 0.05 µg/mL (murine splenocytes; [5]) was 0%. It also gave an activity at 0.005 µg/mL (murine splenocytes; [5]) of 0%, an activity at 0.0005 µg/mL (murine splenocytes; [5]) of 0% and an activity at 50 pg/mL (murine splenocytes; [5]) of 62%. For the same compound, the activity at 0.5 µg/mL ([1]; 120 h, human, 5.0 × 10^-1 μg/ml, read-out: % of Positive Control MLR) was 0%, the activity at 0.05 µg/mL ([1]; 120 h, human, 5.0 × 10^-2 μg/ml, read-out: % of Positive Control MLR) was 0% and the activity at 0.005 µg/mL ([1]; 120 h, human, 5.0 × 10^-3 μg/ml, read-out: % of Positive Control MLR) was 0%. For the same compound, the activity at 0.0005 µg/mL ([1]; 120 h, human, 5.0 × 10^-4 μg/ml, read-out: % of Positive Control MLR) was 40%, the activity at 50 pg/mL ([1]; 120 h, human, 5.0 × 10^-5 μg/ml, read-out: % of Positive Control MLR) was 43% and the activity at 5 pg/mL ([1]; 120 h, human, 5.0 × 10^-6 μg/ml, read-out: % of Positive Control MLR) was 71%. The activity at 500 fg/mL ([1]; 120 h, human, 5.0 × 10^-7 μg/ml, read-out: % of Positive Control MLR) was 81% and the IC50 ([1]; Homo sapiens) was 0.017 ng/mL.
